Data set [1] relates to NRF2. Put plainly: qPCR analysis of NRF2-regulated genes. In kind it is cell-based, human. Conditions: for fold induction at 10 µM: Homo sapiens. The gist of the method:
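WI-38 cells treated with compound at 10 μM for 24 hrs, then processed by Cells-to-Ct for RNA isolation, RT and qPCR of NRF2-regulated genes (HMOX1, NQO1, GCLC, GSTM1). Expression normalized to B2M, PPIA and GAPDH; siRNA knockdown of FOXO3 or NRF2 (10 nM) preceded treatment in some runs.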

Data set [2] deals with WI-38 cells. Briefly: Long-term effects on cell viability (5 days, ATP; morphology, PI imaging).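 On Luminescence signal for ATP measurement, day-2 Average: compounds at 10 µM with ATP read daily over 5 days of treatment.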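 On Luminescence signal for ATP measurement, day-3 Average: compounds at 10 µM with ATP read daily over 5 days of treatment.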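 On Luminescence signal for ATP measurement, day-4 Average: compounds at 10 µM with ATP read daily over 5 days of treatment.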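 On Luminescence signal for ATP measurement, day-5 Average: compounds at 10 µM with ATP read daily over 5 days of treatment.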 In kind it is cell-based. Conditions: 10 μM; for Luminescence signal for ATP measurement, day-1 Average / Luminescence signal for ATP measurement, day-2 Average / Luminescence signal for ATP measurement, day-3 Average / Luminescence signal for ATP measurement, day-4 Average / Luminescence signal for ATP measurement, day-5 Average: n = 6; for viability at 10 µM: Homo sapiens, WI-38, 120 h, DMSO ctrl = 100.0%, read-out: ATP luminescence by day-5 normalized; for Luminescence signal for ATP measurement, day-5 Average / viability at 10 µM: day-5; for O = Potential toxicity / Q = Potential toxicity: human, 5 days.

In data set [3] the test system is FOXO3. Briefly: FOXO3 siRNA knockdown: dependency for H2O2-resistance. It counts as cell-based, human.
Where [4] appears, read: 24 h, Assay 12(o), at 10 uM, qPCR, read-out: Induction of NRF2-regulated genes: GCLC normalized fold-change.
Setting [5] is: rounded fold change, WI-38 cells, 10 μM, 24 hrs, read-out: Summary of effects on NRF2-regulated genes: GCLC.
Setting [6] is: 10 μM, 24 hrs, WI-38 cells, qPCR, normalized to B2M, n = 4, read-out: GCLC expression, normalized fold change (NRF2-regulated gene).
The mark [7] stands for this setting: WI-38 cells, 10 μM, 24 hrs, n=4, qPCR normalized by B2M, read-out: GCLC Normalized fold change.
[8] abbreviates: WI-38 cells, 10 μM, 24 hrs, n=4, qPCR normalized by B2M, read-out: GSTM1 Normalized fold change.
[9] abbreviates: WI-38 cells, 10 μM, 24 hrs, n=4, qPCR normalized by B2M, read-out: HMOX1 Normalized fold change.
[10] abbreviates: WI-38 cells, 10 μM, 24 hrs, n=4, qPCR normalized by B2M, read-out: NQO1 Normalized fold change.
Setting [11] is: Batch 1, day-0 luminescence = 320956 ± 24708.
[12] abbreviates: 24 h, Assay 12(o), at 10 uM, qPCR, read-out: Induction of NRF2-regulated genes: HMOX1 normalized fold-change.
Setting [13] is: 24 h, Assay 12(o), at 10 uM, qPCR, read-out: Induction of NRF2-regulated genes: NQO1 normalized fold-change.
[14] abbreviates: rounded fold change, WI-38 cells, 10 μM, 24 hrs (RP11 for Gr-1D, RP29 for Gr-4D), read-out: Summary of effects on NRF2-regulated genes: HMOX1.
Setting [15] is: rounded fold change, WI-38 cells, 10 μM, 24 hrs (RP29 for Gr-4D), read-out: Summary of effects on NRF2-regulated genes: NQO1.
Where [16] appears, read: 10 μM, 24 hrs, WI-38 cells, qPCR, normalized to B2M, n = 4, read-out: HMOX1 expression, normalized fold change (NRF2-regulated gene).
The mark [17] stands for this setting: 10 μM, 24 hrs, WI-38 cells, qPCR, normalized to B2M, n = 4, read-out: NQO1 expression, normalized fold change (NRF2-regulated gene).
Where [18] appears, read: Batch 2, day-0 luminescence = 229312 ± 17487.
The mark [19] stands for this setting: 10 uM, with H2O2, FOXO3 knockdown in WI-38 cells, YES = resistance reduced by at least 50%, partial = 25% to 50%.

Structures are written as SMILES. Like-named read-outs stand apart in the source and are kept apart here.

Consider `CC(C)(C)c1ccc(OCC(=O)Nc2ccc3c4c(cccc24)C(=O)NC3=O)cc1` [O22], for which the “F = Potential NRF2 Activation” value in data set [1] (2-point score) and in data set [1] (summary score) was 0 each time. Besides, the fold induction at 10 µM in data set [1] (setting [4]) turned out to be 0.66; in data set [1] (setting [5]), 0.66; in data set [1] (setting [6]), 0.66; in data set [1] (setting [7]), 0.659; in data set [1] (setting [8]), 0.877; in data set [1] (setting [9]), 0.765. Besides, the fold induction at 10 µM in data set [1] (setting [10]) stood at 0.929. The “Luminescence signal for ATP measurement, day-1 Average” value (“Luminescence signal … day-1 Average” for short) in data set [2] (setting [11]) was 435891. Further, in data set [2] (setting [11]), the “Luminescence signal for ATP measurement, day-2 Average” value (from here on “Luminescence signal … day-2 Average”) turned out to be 566145. Also, the “Luminescence signal for ATP measurement, day-3 Average” value (from here on “Luminescence signal … day-3 Average”) in data set [2] (setting [11]) is recorded as 690403. Further, the “Luminescence signal for ATP measurement, day-4 Average” value (from here on “Luminescence signal … day-4 Average”) in data set [2] (setting [11]) was determined as 840178. In addition, the “Luminescence signal for ATP measurement, day-5 Average” value (from here on “Luminescence signal … day-5 Average”) in data set [2] (setting [11]) worked out at 805461. The viability at 10 µM in data set [2] (Batch 1) came out at 78.4%. The “O = Potential toxicity” value in data set [2] stood at 0. In data set [2], the “Q = Potential toxicity” value was 0. The “I = FOXO3-dependency for H2O2-resistance” value in data set [3] (score) and in data set [3] (summary score) was 0 in each case.
`CC1C(=O)C(C)C(c2cc(Cl)ccc2O)NC1c1cc(Cl)ccc1O` (stereo not shown) [O6]: the “F = Potential NRF2 Activation” value in data set [1] (2-point score) and in data set [1] (summary score) was 2 each time. For the same compound, in data set [1] (Assay 13(p)), the “Potential NRF2 Activation (>=2 target genes induced, by >=1.5-fold)” value is listed as “YES”. In addition, the fold induction at 10 µM in data set [1] (setting [12]) was 3.85; in data set [1] (setting [13]) it was 1.62; in data set [1] (setting [14]), 3.85; in data set [1] (setting [15]), 1.62; in data set [1] (10 μM, 24 hrs, WI-38, read-out: Expression of at least two NRF2 target genes), > 1.5; in data set [1] (setting [16]), 3.85. For the same compound, the fold induction at 10 µM in data set [1] (setting [17]) was 1.62; in data set [1] (setting [7]) it was 1.06; in data set [1] (setting [8]), 0.965; in data set [1] (setting [9]), 3.85; in data set [1] (setting [10]), 1.62. Moreover, the “O = Potential toxicity” value in data set [2] came to 0. Moreover, in data set [2], the “Q = Potential toxicity” value turned out to be 0. Also, the “I = FOXO3-dependency for H2O2-resistance” value in data set [3] (score) and in data set [3] (summary score) was 0 throughout.
Take `Nc1ccccc1S(=O)(=O)Nc1cccc2cccnc12` [Gr-3C]: the “F = Potential NRF2 Activation” value in data set [1] (2-point score) and in data set [1] (summary score) was 0 each time. For the same compound, the fold induction at 10 µM in data set [1] (setting [12]) amounted to 0.86; in data set [1] (setting [7]) it was 0.991; in data set [1] (setting [8]), 1.45; in data set [1] (setting [9]), 1.12; in data set [1] (setting [10]), 1.19. Moreover, the “Luminescence signal … day-1 Average” value in data set [2] (setting [18]) turned out to be 190045. Also, the “Luminescence signal … day-2 Average” value in data set [2] (setting [18]) worked out at 194191. Further, the “Luminescence signal … day-3 Average” value in data set [2] (setting [18]) is reported as 270505. The “Luminescence signal … day-4 Average” value in data set [2] (setting [18]) amounted to 244033. The “Luminescence signal … day-5 Average” value in data set [2] (setting [18]) was 265285. In addition, the viability at 10 µM in data set [2] (Batch 2) was 47.7%. In data set [2], the “O = Potential toxicity” value came out at 0. The “Q = Potential toxicity” value in data set [2] came to 1. Moreover, the “I = FOXO3-dependency for H2O2-resistance” value in data set [3] (score) and in data set [3] (summary score) was 0 each time.
Take `O=C(NCc1cccnc1)/C(=C\c1cccc(Oc2ccccc2)c1)S(=O)(=O)c1ccccc1` [Gr-7A]: the “F = Potential NRF2 Activation” value in data set [1] (2-point score) and in data set [1] (summary score) was 0 each time. Also, the fold induction at 10 µM in data set [1] (setting [4]) was 0.6; in data set [1] (setting [12]) it was 15.2; in data set [1] (setting [13]) it was 0.78; in data set [1] (setting [14]), 15.2; in data set [1] (setting [15]), 0.78; in data set [1] (setting [5]), 0.6. The fold induction at 10 µM in data set [1] (setting [6]) was found to be 0.6; in data set [1] (setting [16]), 15.2; in data set [1] (setting [17]), 0.78; in data set [1] (setting [7]), 0.602; in data set [1] (setting [8]), 1.09; in data set [1] (setting [9]), 15.2. Moreover, in data set [1] (setting [10]), the fold induction at 10 µM was found to be 0.779. Further, the “Luminescence signal … day-1 Average” value in data set [2] (setting [11]) was found to be 463265. Further, the “Luminescence signal … day-2 Average” value in data set [2] (setting [11]) is listed as 192116. Further, the “Luminescence signal … day-3 Average” value in data set [2] (setting [11]) amounted to 67526. Also, in data set [2] (setting [11]), the “Luminescence signal … day-4 Average” value is reported as 48480. Further, the “Luminescence signal … day-5 Average” value in data set [2] (setting [11]) was 44670. Moreover, in data set [2] (Batch 1), the viability at 10 µM came to 4.4%. The “O = Potential toxicity” value in data set [2] is given as 0. Moreover, the “Q = Potential toxicity” value in data set [2] is reported as 1. For the same compound, the “FOXO3-dependency for H2O2-resistance, at 10 uM - with H2O2, 1st experiment” value in data set [3] (10 uM, experiment 1 (1st), with H2O2) is listed as 1st, partial;. In addition, in data set [3] (10 uM, experiment 2 (2nd), with H2O2), the “FOXO3-dependency for H2O2-resistance, at 10 uM - with H2O2, 2nd experiment” value is listed as 2nd, YES. Moreover, the “FOXO3-dependency for H2O2-resistance, at 10 uM (experiment 3) - with & without H2O2” value in data set [3] (10 uM, experiment 3, with & without H2O2) is given as “YES”. Besides, in data set [3] (10 uM, with & without H2O2, FOXO3 knockdown in WI-38 cells, YES = resistance reduced by at least 50%, partial = 25% to 50%), the “FOXO3-dependency for H2O2-resistance (experiment 3)” value is recorded as “YES”. Also, the “FOXO3-dependency for H2O2-resistance, 1st experiment” value in data set [3] (setting [19]) is on record as “partial;”. The “FOXO3-dependency for H2O2-resistance, 2nd experiment” value in data set [3] (setting [19]) was “YES”. In addition, the “Assay 16: FOXO3-dependency for H2O2-resistance” value in data set [3] (10 uM, YES/NO) is given as “YES”. In data set [3] (FOXO3 siRNA, at least 2 of 3 independent experiments), the “Requirement of FOXO3 to promote H2O2-resistance” value is recorded as “required FOXO3”. The “I = FOXO3-dependency for H2O2-resistance” value in data set [3] (score) and in data set [3] (summary score) was 1 in each case.
`N=C1S/C(=C\c2cn(-c3ccccc3)nc2-c2cccs2)C(=O)N1c1nccs1` [Gr-6C]: the “F = Potential NRF2 Activation” value in data set [1] (2-point score) and in data set [1] (summary score) was 0 throughout. For the same compound, the fold induction at 10 µM was 0.33 in data set [1] (setting [4]); 2.09 in data set [1] (setting [12]); 2.09 in data set [1] (setting [14]); 0.33 in data set [1] (setting [5]); 0.33 in data set [1] (setting [6]); 2.09 in data set [1] (setting [16]). For the same compound, the fold induction at 10 µM in data set [1] (setting [7]) was 0.331; in data set [1] (setting [8]), 0.914; in data set [1] (setting [9]) it was 2.09; in data set [1] (setting [10]), 0.87. Moreover, the “Luminescence signal … day-1 Average” value in data set [2] (setting [11]) amounted to 435273. Besides, the “Luminescence signal … day-2 Average” value in data set [2] (setting [11]) was found to be 542716. Also, the “Luminescence signal … day-3 Average” value in data set [2] (setting [11]) is on record as 574765. In addition, in data set [2] (setting [11]), the “Luminescence signal … day-4 Average” value is recorded as 624471. Moreover, the “Luminescence signal … day-5 Average” value in data set [2] (setting [11]) is on record as 548865. Besides, the viability at 10 µM in data set [2] (Batch 1) came to 53.5%. Also, the “O = Potential toxicity” value in data set [2] is reported as 0. For the same compound, the “Q = Potential toxicity” value in data set [2] came out at 1. Also, the “I = FOXO3-dependency for H2O2-resistance” value in data set [3] (score) and in data set [3] (summary score) was 0 throughout.

Values taken from patent US11413278B2, “Compounds and methods for promoting stress resistance” (priority 2015, dated 2022).
